Source: the CheMixHub ionic liquid set

Assay: xn = mol fraction of the nth substance listed
Conditions: for viscosity: 101 kPa; for electrical conductivity: 100 kPa

CCCCCCCCCCCCCCCC[N+](C)(C)C.[Br-] + NCC(=O)O + O
viscosity [mPa·s]
Conditions	298.15 K	303.15 K	308.15 K	313.15 K
x2 = 0.003591, x1 = 3.46e-06	0.906	0.819	0.74	0.67
x2 = 0.003591, x1 = 8.2e-06	0.909	0.82	0.742	0.671
x2 = 0.003591, x1 = 1.13e-05	0.912	0.82	0.745	0.672
x2 = 0.003591, x1 = 1.44e-05	0.914	0.825	0.749	0.674
x2 = 0.003591, x1 = 1.731e-05	0.922	0.827	0.752	0.675
x2 = 0.003591, x1 = 2.096e-05	0.93	0.831	0.755	0.678
x2 = 0.003591, x1 = 2.333e-05	0.932	0.843	0.757	0.68
x2 = 0.003591, x1 = 2.752e-05	0.936	0.847	0.759	0.683
x2 = 0.003591, x1 = 3.171e-05	0.94	0.853	0.761	0.689
x2 = 0.003591, x1 = 3.572e-05	0.94	0.855	0.764	0.692
x2 = 0.005377, x1 = 3.48e-06	0.879	0.801	0.725	0.644
x2 = 0.005377, x1 = 8.25e-06	0.881	0.804	0.726	0.644
x2 = 0.005377, x1 = 1.136e-05	0.884	0.805	0.726	0.645
x2 = 0.005377, x1 = 1.448e-05	0.886	0.807	0.727	0.647
x2 = 0.005377, x1 = 1.741e-05	0.89	0.808	0.728	0.648
x2 = 0.005377, x1 = 2.108e-05	0.893	0.811	0.731	0.649
x2 = 0.005377, x1 = 2.346e-05	0.896	0.813	0.733	0.65
x2 = 0.005377, x1 = 2.767e-05	0.9	0.816	0.736	0.651
x2 = 0.005377, x1 = 3.189e-05	0.906	0.823	0.738	0.653
x2 = 0.005377, x1 = 3.592e-05	0.912	0.828	0.741	0.655
x2 = 0.007156, x1 = 3.5e-06	0.914	0.848	–	–
x2 = 0.007156, x1 = 8.29e-06	0.918	0.852	–	–
x2 = 0.007156, x1 = 1.143e-05	0.92	0.855	–	–
x2 = 0.007156, x1 = 1.456e-05	0.922	0.859	–	–
x2 = 0.007156, x1 = 1.751e-05	0.925	0.864	–	–
x2 = 0.007156, x1 = 2.119e-05	0.926	0.868	–	–
x2 = 0.007156, x1 = 2.359e-05	0.929	0.872	–	–
x2 = 0.007156, x1 = 2.783e-05	0.933	0.876	–	–
x2 = 0.007156, x1 = 3.206e-05	0.937	0.882	–	–
x2 = 0.007156, x1 = 3.612e-05	0.944	0.886	–	–

CCCCCCCC[n+]1ccccc1.[Br-] + NCC(=O)O + O
Conditions	electrical conductivity [S/m]
288.15 K, x2 = 0.0008947, x1 = 0.006107	1.24
288.15 K, x2 = 0.000895, x1 = 0.005825	1.21
288.15 K, x2 = 0.0008952, x1 = 0.005524	1.18
288.15 K, x2 = 0.0008955, x1 = 0.005206	1.15
288.15 K, x2 = 0.0008958, x1 = 0.004856	1.11
288.15 K, x2 = 0.0008962, x1 = 0.004472	1.07
288.15 K, x2 = 0.0008965, x1 = 0.004053	1
288.15 K, x2 = 0.0008969, x1 = 0.003596	0.923
288.15 K, x2 = 0.0008974, x1 = 0.003095	0.831
288.15 K, x2 = 0.0008979, x1 = 0.00254	0.716
288.15 K, x2 = 0.0008984, x1 = 0.00193	0.579
288.15 K, x2 = 0.0008988, x1 = 0.001523	0.48
288.15 K, x2 = 0.0008992, x1 = 0.00113	0.377
288.15 K, x2 = 0.0008996, x1 = 0.000679	0.257
288.15 K, x2 = 0.001793, x1 = 0.003383	0.886
288.15 K, x2 = 0.001794, x1 = 0.002789	0.766
288.15 K, x2 = 0.001795, x1 = 0.002127	0.621
288.15 K, x2 = 0.001796, x1 = 0.00171	0.522
288.15 K, x2 = 0.001797, x1 = 0.0007678	0.279
288.15 K, x2 = 0.001797, x1 = 0.001253	0.407
293.15 K, x2 = 0.0008947, x1 = 0.006101	1.41
293.15 K, x2 = 0.000895, x1 = 0.005819	1.38
293.15 K, x2 = 0.0008952, x1 = 0.005519	1.34
293.15 K, x2 = 0.0008955, x1 = 0.005201	1.3
293.15 K, x2 = 0.0008958, x1 = 0.00485	1.26
293.15 K, x2 = 0.0008962, x1 = 0.004469	1.21
293.15 K, x2 = 0.0008965, x1 = 0.00405	1.13
293.15 K, x2 = 0.0008969, x1 = 0.003594	1.05
293.15 K, x2 = 0.0008974, x1 = 0.003091	0.935
293.15 K, x2 = 0.0008979, x1 = 0.002538	0.809
293.15 K, x2 = 0.0008985, x1 = 0.001923	0.652
293.15 K, x2 = 0.0008988, x1 = 0.001521	0.542
293.15 K, x2 = 0.0008992, x1 = 0.00113	0.423
293.15 K, x2 = 0.0008996, x1 = 0.000679	0.285
293.15 K, x2 = 0.001793, x1 = 0.003379	1
293.15 K, x2 = 0.001794, x1 = 0.002785	0.864
293.15 K, x2 = 0.001795, x1 = 0.002125	0.701
293.15 K, x2 = 0.001796, x1 = 0.001708	0.589
293.15 K, x2 = 0.001797, x1 = 0.0007678	0.312
293.15 K, x2 = 0.001797, x1 = 0.001251	0.458
298.15 K, x2 = 0.0008947, x1 = 0.006092	1.59
298.15 K, x2 = 0.000895, x1 = 0.005812	1.55
298.15 K, x2 = 0.0008952, x1 = 0.005512	1.51
298.15 K, x2 = 0.0008955, x1 = 0.005195	1.47
298.15 K, x2 = 0.0008958, x1 = 0.004845	1.42
298.15 K, x2 = 0.0008962, x1 = 0.004462	1.35
298.15 K, x2 = 0.0008965, x1 = 0.004044	1.27
298.15 K, x2 = 0.000897, x1 = 0.003589	1.18
298.15 K, x2 = 0.0008974, x1 = 0.003088	1.05
298.15 K, x2 = 0.0008979, x1 = 0.002534	0.906
298.15 K, x2 = 0.0008985, x1 = 0.001921	0.725
298.15 K, x2 = 0.0008988, x1 = 0.001519	0.603
298.15 K, x2 = 0.0008992, x1 = 0.001128	0.473
298.15 K, x2 = 0.0008996, x1 = 0.0006772	0.315
298.15 K, x2 = 0.001793, x1 = 0.003376	1.11
298.15 K, x2 = 0.001794, x1 = 0.002781	0.967
298.15 K, x2 = 0.001795, x1 = 0.002123	0.782
298.15 K, x2 = 0.001796, x1 = 0.001706	0.657
298.15 K, x2 = 0.001797, x1 = 0.000766	0.347
298.15 K, x2 = 0.001797, x1 = 0.001249	0.511
303.15 K, x2 = 0.0008947, x1 = 0.006085	1.78
303.15 K, x2 = 0.000895, x1 = 0.005803	1.74
303.15 K, x2 = 0.0008952, x1 = 0.005503	1.69
303.15 K, x2 = 0.0008955, x1 = 0.005188	1.64
303.15 K, x2 = 0.0008958, x1 = 0.004838	1.58
303.15 K, x2 = 0.0008962, x1 = 0.004456	1.51
303.15 K, x2 = 0.0008965, x1 = 0.004039	1.42
303.15 K, x2 = 0.000897, x1 = 0.003583	1.3
303.15 K, x2 = 0.0008974, x1 = 0.003082	1.17
303.15 K, x2 = 0.0008979, x1 = 0.002531	1
303.15 K, x2 = 0.0008985, x1 = 0.001917	0.791
303.15 K, x2 = 0.0008988, x1 = 0.001517	0.654
303.15 K, x2 = 0.0008992, x1 = 0.001126	0.519
303.15 K, x2 = 0.0008996, x1 = 0.0006772	0.351
303.15 K, x2 = 0.001793, x1 = 0.00337	1.24
303.15 K, x2 = 0.001794, x1 = 0.002778	1.08
303.15 K, x2 = 0.001795, x1 = 0.002119	0.859
303.15 K, x2 = 0.001796, x1 = 0.001704	0.719
303.15 K, x2 = 0.001797, x1 = 0.000766	0.383
303.15 K, x2 = 0.001797, x1 = 0.001247	0.566
308.15 K, x2 = 0.0008947, x1 = 0.006075	2.03
308.15 K, x2 = 0.000895, x1 = 0.005792	1.97
308.15 K, x2 = 0.0008952, x1 = 0.005494	1.9
308.15 K, x2 = 0.0008955, x1 = 0.005178	1.84
308.15 K, x2 = 0.0008958, x1 = 0.004829	1.75
308.15 K, x2 = 0.0008962, x1 = 0.004449	1.66
308.15 K, x2 = 0.0008966, x1 = 0.004032	1.57
308.15 K, x2 = 0.000897, x1 = 0.003578	1.44
308.15 K, x2 = 0.0008974, x1 = 0.003077	1.26
308.15 K, x2 = 0.0008979, x1 = 0.002527	1.07
308.15 K, x2 = 0.0008985, x1 = 0.001914	0.861
308.15 K, x2 = 0.0008988, x1 = 0.001516	0.717
308.15 K, x2 = 0.0008992, x1 = 0.001125	0.574
308.15 K, x2 = 0.0008996, x1 = 0.0006754	0.425
308.15 K, x2 = 0.001793, x1 = 0.003365	1.36
308.15 K, x2 = 0.001794, x1 = 0.002774	1.17
308.15 K, x2 = 0.001795, x1 = 0.002116	0.934
308.15 K, x2 = 0.001796, x1 = 0.001701	0.79
308.15 K, x2 = 0.001797, x1 = 0.0007642	0.453
308.15 K, x2 = 0.001797, x1 = 0.001245	0.624
